# Measurements taken from paper PMC11237035, “Glutathione determines chronic myeloid leukemia vulnerability to an inhibitor of CMPK and TMPK” (Communications Biology, 2024).
# Several values for one entry are separate records, joined by “and”; a condition that tells them apart may be missing. Equal entries are not always repeated. Where two headings read alike, the source gives them in different places.
# Tests used:
# Assay type in all cases: cell-based, mouse
# [1] = tested on: T315I-Bcr-Abl-32D cells; assay: dTTP/dCTP pools by RCA-qPCR in T315I-Bcr-Abl-32D cells; settings: T315I-Bcr-Abl-32D cells, combinatory treatment of UK-5099 with JMF4073
# Procedure: The methanol extracts were centrifuged
# For chloroform extraction, same volume of
# attomol of the annealed template-primer.
# The RCA products were determined by
# The thiophenol compound 3 was
# (98.5%) after silica gel chromatography.
# [2] = tested on: untransformed 32D cells; assay: CCK-8 cell viability assay, untransformed 32D cells; settings: for viability (vehicle, 0 = 100): 32D cells, 72 h, no BSO; for viability (vehicle, 0 = 100) / viability (0 = 100): single replicates; for viability (0 = 100): Untransformed
# Procedure: After 72 h, viability assays were performed.
# 3 independent experiments. Asterisks denote ***p<0.001 from non-paired two-tailed
# [3] = tested on: WT-Bcr-Abl-32D cells; assay: CCK-8 cell viability assay, WT-Bcr-Abl-32D cells; settings: for viability (0 = 100): single replicates
# [4] = tested on: T315I-Bcr-Abl-32D cells; assay: CCK-8 cell viability assay, T315I-Bcr-Abl-32D cells; settings: for cell viability (% of NT, 0 JMF4073), Figure 5e / cell viability (% of 0 JMF4073), Figure 5b: T315I; for cell viability (% of NT, 0 JMF4073), Figure 5e: NT (no BSO)
structure (smiles),measurement,setting,value
"CC(C)(C)OC(=O)N1CCN(C(=O)Cn2sc3ccc(F)cc3c2=O)CC1 [JMF4073, Tert-butyl 4-(2-(5-fluoro-3-oxobenzo[d]isothiazol-2(3H)-yl)acetyl) piperazine-1-carboxylate]",dCTP pool,[1],exhaustion
same,dTTP pool,[1],exhaustion
same,"viability (vehicle, 0 = 100)",[2]; JMF4073 0.5 mM (so in the source),108 and 88
same,"viability (vehicle, 0 = 100)",[2]; JMF4073 1.25 mM (so in the source),86 and 80
same,"viability (vehicle, 0 = 100)",[2]; JMF4073 2.5 mM (so in the source),70 and 71.46
same,"growth of cells, BSO in combination with JMF4073",[2]; 32D myeloid progenitor cells,severely suppressed the growth
same,GI50,"[2]; Mus musculus, untransformed 32D cells, viability",4.2 µM
same,viability (0 = 100),[2]; JMF4073 1 mM (so in the source),80.74 and 95.63 and 110
same,viability (0 = 100),[2]; JMF4073 2 mM (so in the source),67.24 and 95.4 and 71
same,viability (0 = 100),[2]; JMF4073 5 mM (so in the source),26.41 and 55.58 and 32
same,GI50,"[3]; Mus musculus, WT-Bcr-Abl-32D cells, viability",0.67 µM
same,viability (0 = 100),"[3]; WT-Bcr-Abl, JMF4073 1 mM (so in the source)",5 and 32.8138 and 24
same,viability (0 = 100),"[3]; WT-Bcr-Abl, JMF4073 2 mM (so in the source)",1 and 9.014 and 19
same,viability (0 = 100),"[3]; WT-Bcr-Abl, JMF4073 5 mM (so in the source)",-1.08 and 0.13 and 0
same,"cell viability (% of NT vehicle), Figure 5h","[3]; WT-Bcr-Abl, NT (no NAC), JMF4073, single replicates",28.4633 and 15.0339 and 2.584
same,JMF4073 sensitivity after NAC treatment,"[3]; WT-Bcr-Abl-32D cells, NAC 1 mM + JMF4073 0.5 μM, 72 h",insensitive to JMF4073
same,viability at 1000 µM,"[4]; Mus musculus, T315I-Bcr-Abl, JMF4073 1 mM (so in the source), single replicates, read-out: viability (0 = 100)",69%
same,viability at 500 µM,"[4]; Mus musculus, T315I-Bcr-Abl, NT (no UK-5099), JMF4073 0.5 mM as printed, replicates, read-out: Figure 6c, viability relative to NT (=100)",80.7%
same,viability at 1250 µM,"[4]; Mus musculus, T315I-Bcr-Abl, NT (no UK-5099), JMF4073 1.25 mM as printed, replicates, read-out: Figure 6c, viability relative to NT (=100)",43%
same,viability at 500 µM,"[4]; Mus musculus, read-out: cell viability (% of 0 JMF4073), Figure 5b, T315I, shLacZ, JMF4073 0.5 mM (so in the source), single replicates",78.6%
same,viability at 2500 µM,"[4]; Mus musculus, read-out: cell viability (% of 0 JMF4073), Figure 5b, T315I, shLacZ, JMF4073 2.5 mM (so in the source), single replicates",15.5%
same,viability at 500 µM,"[4]; Mus musculus, read-out: cell viability (% of 0 JMF4073), Figure 5b, T315I, shSHMT2, JMF4073 0.5 mM (so in the source), single replicates",71.4%
same,viability at 1250 µM,"[4]; Mus musculus, read-out: cell viability (% of 0 JMF4073), Figure 5b, T315I, shSHMT2, JMF4073 1.25 mM (so in the source), single replicates",52.1%
same,viability at 2500 µM,"[4]; Mus musculus, read-out: cell viability (% of 0 JMF4073), Figure 5b, T315I, shSHMT2, JMF4073 2.5 mM (so in the source), single replicates",14.5%
same,viability at 500 µM,"[4]; Mus musculus, read-out: cell viability (% of NT, 0 JMF4073), Figure 5e, T315I, NT (no BSO), JMF4073 0.5 mM (so in the source), single replicates",88%
same,viability at 1250 µM,"[4]; Mus musculus, read-out: cell viability (% of NT, 0 JMF4073), Figure 5e, T315I, NT (no BSO), JMF4073 1.25 mM (so in the source), single replicates",64%
same,GI50,"[4]; Mus musculus, T315I-Bcr-Abl-32D cells, viability",1.5 µM
same,"cell viability (% of NT, 0 JMF4073), Figure 5e","[4]; JMF4073 0.5 mM (so in the source), single replicates",86.2452 and 88.0302
same,"cell viability (% of NT, 0 JMF4073), Figure 5e","[4]; JMF4073 1.25 mM (so in the source), single replicates",67.023 and 70.4858
same,"cell viability (% of NT, 0 JMF4073), Figure 5e","[4]; JMF4073 2.5 mM (so in the source), single replicates",17 and 12.279 and 45.0063
same,"cell viability (% of 0 JMF4073), Figure 5b","[4]; shLacZ, JMF4073 0.5 mM (so in the source), single replicates",80.777
same,"cell viability (% of 0 JMF4073), Figure 5b","[4]; shLacZ, JMF4073 1.25 mM (so in the source), single replicates",68.6184 and 53.2629
same,"cell viability (% of 0 JMF4073), Figure 5b","[4]; shLacZ, JMF4073 2.5 mM (so in the source), single replicates",11.7008
same,"cell viability (% of 0 JMF4073), Figure 5b","[4]; shSHMT2, JMF4073 0.5 mM (so in the source), single replicates",67.1231
same,"cell viability (% of 0 JMF4073), Figure 5b","[4]; shSHMT2, JMF4073 1.25 mM (so in the source), single replicates",37.9395
same,"cell viability (% of 0 JMF4073), Figure 5b","[4]; shSHMT2, JMF4073 2.5 mM (so in the source), single replicates",11.3951
same,viability (0 = 100),"[4]; T315I-Bcr-Abl, JMF4073 1 mM (so in the source), single replicates",70 and 66.4746
